How the values were obtained:
wild type HIV PR = target: T1, wild type HIV PR (Human immunodeficiency virus type 1 group M subtype B, UniProt P04585); experiment: HIV PR inhibition assay, wild type; type: biochemical
T1 construct: Recombinant wild type and mutant HIV PRs were expressed using pET21 vector (Novagen) in E. coli cells; made in house
Description: (§1) Expression and purification of WT and mutant HIV PR. Recombinant wild type and mutant HIV PRs were expressed using pET21 vector (Novagen) in E. coli cells, and purified and refolded as described previously (Gulnik et al, 1995). The cells were resuspended in 50 mM tris-HCl buffer, pH 8.0, 25 mM NaCl, 0.2% β-mercaptoethanol (buffer A), sonicated and centrifuged. Inclusion bodies were washed first with buffer A, then with buffer A containing respectively 0.1% Triton X-100, 1 M NaCl, 1 M urea, and finally with buffer A alone. Purified inclusion bodies were solubilized by addition of buffer A containing 8 M urea at room temperature. The solution was clarified by centrifugation and loaded onto 2.6×9.5 cm Q-Sepharose column. Flow-through fractions were collected and dialyzed against 3 changes of refolding buffer, which consists of 25 mM Na-phosphate, pH 7.0, 25 mM NaCl, 0.2% β-mercaptoethanol and 10% glycerol, aliquoted and stored at −80° C.
(§2) Inhibition constants were determined using the fluorogenic substrate ArgGlu(EDANS)[…]DABCYL)Arg (Amichem, USA). HIV Protease was preincubated for 0.5-1 min at ambient temperature on a 96 well plate with different concentrations of inhibitor in 0.05 M sodium phosphate buffer, pH 6.5, containing 20 mM NaCl, 2 mM DTT and 0.01% Tween-20. The reaction was initiated by the addition of substrate. Final enzyme concentration was 2-5 nM for WT and 2-30 nM for mutants. Substrate concentration was 20 uM and DMSO concentration 2%. The increase in fluorescence intensity at the emission maximum of 520 nm (excitation wavelength 340 nm, cut-off filter 495 nm) was monitored as a function of time using a Spectramax Gemini fluorescence plate reader (Molecular Devices, CA USA). The initial rate of hydrolysis was calculated by first-degree polynomial fit using SoftMAX operating software. Data were fitted to the Michaelis-Menten equation for competitive inhibitors. For tight-binding inhibitors the data were fitted by nonlinear regression analysis to the equation V=V0/2Et({[Ki(1+S/Km)+It−Et]^2+4Ki(1+S/Km)Et}^1/2−[Ki(1+S/Km)+It−Et]) (Williams and Morrison, 1979) with the program GraFit, version 5 (Erithacus Software Limited, UK), where V and V0 are initial velocities with and without inhibitor, Km is the Michaelis-Menten constant and S, Et and It are the concentrations of substrate, active enzyme and inhibitor respectively.

mutant HIV PR (Mutant 8) = mutant HIV PR (Mutant 8) (Human immunodeficiency virus type 1 group M subtype B, UniProt P04585); experiment: HIV PR inhibition assay, Mutant 8; type: biochemical; conditions: read-out: Ki Mutant 8; recombinant mutant HIV PR, fluorogenic substrate, pH 6.5
Description: as §1, §2

mutant HIV PR (Mutant 9) = mutant HIV PR (Mutant 9) (Human immunodeficiency virus type 1 group M subtype B, UniProt P04585); experiment: HIV PR inhibition assay, Mutant 9; type: biochemical; conditions: read-out: Ki Mutant 9; recombinant mutant HIV PR, fluorogenic substrate, pH 6.5
Description: as §1, §2

[1] = target: mutant HIV PR (Mutant 10) (Human immunodeficiency virus type 1 group M subtype B, UniProt P04585); experiment: HIV PR inhibition assay, Mutant 10; type: biochemical; conditions: read-out: Ki Mutant 10; recombinant mutant HIV PR, fluorogenic substrate, pH 6.5
Description: as §1, §2

WT=HIVHXB2 = experiment: Antiviral assay in MT-4 cells (MTT), WT virus; type: cell-based, HIV; conditions: Human immunodeficiency virus 1, MT4, 120 h, HIVHXB2, 5 days
Description: (§3) MT-4 cells were obtained from the AIDS Research and Reference Reagent Program (ARRRP, Division of AIDS, NIAID, NIH: MT-4 from Dr. D. Richman). Cells were propagated in RPMI 1640 supplemented with 10% fetal bovine serum, 50U of penicillin and 50 μg of streptomycin per ml (Invitrogen, Carlsbad Calif.). The following HIV viruses were used for testing of antiviral potency of compounds: WT=HIVHXB2; recombinant HIVHXB2 virus from drug resistant patient isolates; HIVmutant10 (16 mutations); HIVmutant8 (14 mutations); HIVmutant9 (10 mutations).
(§4) The potency of test compound was determined as previously described (ref 1-3) with minor modifications. MT-4 cells (1.5×10^4/ml) were exposed to 200 50 % tissue culture infective doses (TCID50) of viruses in the presence of various concentrations of test compound in 96 well microtiter plates and incubated at 37° C. for 5 days. 3-(4,5-dimethylthiazol-2-yl)-2,5-diphenytetrazolium bromide (MTT) solution was added to a final concentration of 0.75 mg/ml, and plates were incubated 1 hour. After incubation cells were dissolved in isopropanol/Triton-X 100/HCl (1000:50:25) solution. Absorbance was monitored in a microplate reader (Spectramax, Molecular Devices) at 540 nm and 690 nm. Cytotoxicity of compounds was tested in a similar assay in the absence of virus.

[2] = test system: HIVmutant8 (14 mutations); experiment: Antiviral assay in MT-4 cells (MTT), mutant 8 virus; type: cell-based, HIV; conditions: Human immunodeficiency virus 1, MT4, 120 h, read-out: IC50 Mutant 8
Description: as §3, §4

[3] = test system: HIVmutant9 (10 mutations); experiment: Antiviral assay in MT-4 cells (MTT), mutant 9 virus; type: cell-based, HIV; conditions: Human immunodeficiency virus 1, MT4, 120 h, read-out: IC50 Mutant 9
Description: as §3, §4

[4] = test system: HIVmutant10 (16 mutations); experiment: Antiviral assay in MT-4 cells (MTT), mutant 10 virus; type: cell-based, HIV; conditions: Human immunodeficiency virus 1, MT4, 120 h, read-out: IC50 Mutant 10
Description: as §3, §4

| Structure (SMILES) | Ki (wild type HIV PR) | Ki (mutant HIV PR (Mutant 8)) | Ki (mutant HIV PR (Mutant 9)) | Ki [1] | IC50 (WT=HIVHXB2) | IC50 [2] | IC50 [3] | IC50 [4] |
| --- | --- | --- | --- | --- | --- | --- | --- | --- |
| CC(C)CN(C[C@@H](O)[C@H](Cc1ccccc1)NC(=O)O[C@H]1CO[C@H]2OCC[C@H]21)S(=O)(=O)c1ccc2c(c1)/C(=C/N(C)C)C(=O)N2 [Compound 21, {1-Benzyl-3-[(3-dimethylaminomethylene-2-oxo-2,3-dihydro-1H-indole-5-sulfonyl)-isobutyl-amino]-2-hydroxy-propyl}-carbamic acid hexahydro-furo[2,3-b]furan-3-yl ester] | < 0.1 nM | < 0.3 nM | < 0.1 nM | < 1 nM | 93 nM | 90 nM | 65 nM | 70 nM |
| CC(C)CN(C[C@@H](O)[C@H](Cc1ccccc1)NC(=O)O[C@H]1CO[C@H]2OCC[C@H]21)S(=O)(=O)c1ccc2c(c1)/C(=C/NCC(C)(C)C)C(=O)N2 [Compound 22, [1-Benzyl-3-({3-[(2,2-dimethyl-propylamino)-methylene]-2-oxo-2,3-dihydro-1H-indole-5-sulfonyl}-isobutyl-amino)-2-hydroxy-propyl]-carbamic acid hexahydro-furo[2,3b]furan-3-yl ester] | < 0.1 nM | < 0.3 nM | 0.15 nM | < 1 nM | 4.5 nM | 13 nM | 9.5 nM | 27 nM |
| CCCN(C=C1C(=O)Nc2ccc(S(=O)(=O)N(CC(C)C)CC(O)C(Cc3ccccc3)NC(=O)OC3COC4OCCC34)cc21)CCC (stereo not drawn) [Compound 32, {1-Benzyl-3-[(3-dipropylaminomethylene-2-oxo-2,3-dihydro-1H-indole-5-sulfonyl)-isobutyl-amino]-2-hydroxy-propyl}-carbamic acid hexahydro-furo[2,3-b]furan-3-yl ester] | < 0.1 nM | < 0.3 nM | < 0.1 nM | < 1 nM | 10 nM | 24 nM | 12 nM | 58 nM |
| CNC(C)=C1C(=O)Nc2ccc(S(=O)(=O)N(CC(C)C)CC(O)C(Cc3ccccc3)NC(=O)OC3COC4OCCC34)cc21 (stereo not drawn) [Compound 41, (1-Benzyl-2-hydroxy-3-{isobutyl-[3-(1-methylamino-ethylidene)-2-oxo-2,3-dihydro-1H-indole-5-sulfonyl]-amino}-propyl)-carbamic acid hexahydro-furo[2,3-b]furan-3-yl ester] | < 0.1 nM | < 0.3 nM | < 0.1 nM | < 1 nM | 10 nM | 29 nM | 17 nM | 56 nM |
| CCNC(C)=C1C(=O)Nc2ccc(S(=O)(=O)N(CC(C)C)CC(O)C(Cc3ccccc3)NC(=O)OC3COC4OCCC34)cc21 (stereo not drawn) [Compound 43, (1-Benzyl-3-{[3-(1-ethylamino-ethylidene)-2-oxo-2,3-dihydro-1H-indole-5-sulfonyl]-isobutyl-amino}-2-hydroxy-propyl)-carbamic acid hexahydro-furo[2,3-b]furan-3-yl ester] | < 0.1 nM | < 0.3 nM | < 0.1 nM | < 1 nM | 7 nM | 23 nM | 9 nM | 65 nM |
| CC(NCC(F)(F)F)=C1C(=O)Nc2ccc(S(=O)(=O)N(CC(C)C)CC(O)C(Cc3ccccc3)NC(=O)OC3COC4OCCC34)cc21 (stereo not drawn) [Compound 45, [1-Benzyl-2-hydroxy-3-(isobutyl-{2-oxo-3-[1-(2,2,2-trifluoro-ethylamino)-ethylidene]-2,3-dihydro-1H-indole-5-sulfonyl}-amino)-propyl]-carbamic acid hexahydro-furo[2,3-b]furan-3-yl ester] | < 0.1 nM | < 0.3 nM | < 0.1 nM | 3.1 nM | 13 nM | 26 nM | – | 52 nM |
| CCCCNC=C1C(=O)Nc2ccc(S(=O)(=O)N(CC(C)C)CC(O)C(Cc3ccccc3)NC(=O)OC3COC4OCCC34)cc21 (stereo not drawn) [Compound 57, {1-Benzyl-3-[(3-butylaminomethylene-2-oxo-2,3-dihydro-1H-indole-5-sulfonyl)-isobutyl-amino]-2-hydroxy-propyl}-carbamic acid hexahydro-furo[2,3-b]furan-3-yl ester] | < 0.1 nM | < 0.3 nM | 0.19 nM | < 1 nM | 13 nM | 25 nM | 11 nM | 40 nM |
| CC(C)CNC=C1C(=O)Nc2ccc(S(=O)(=O)N(CC(C)C)CC(O)C(Cc3ccccc3)NC(=O)OC3COC4OCCC34)cc21 (stereo not drawn) [Compound 60, (1-Benzyl-2-hydroxy-3-{isobutyl-[3-(isobutylamino-methylene)-2-oxo-2,3-dihydro-1H-indole-5-sulfonyl]-amino}-propyl)-carbamic acid hexahydro-furo[2,3-b]furan-3-yl ester] | < 0.1 nM | < 0.3 nM | 0.15 nM | < 1 nM | 7.5 nM | 16 nM | 9.5 nM | 33 nM |
| CC(C)CCNC=C1C(=O)Nc2ccc(S(=O)(=O)N(CC(C)C)CC(O)C(Cc3ccccc3)NC(=O)OC3COC4OCCC34)cc21 (stereo not drawn) [Compound 66, [1-Benzyl-2-hydroxy-3-(isobutyl-{3-[(3-methyl-butylamino)-methylene]-2-oxo-2,3-dihydro-1H-indole-5-sulfonyl}-amino)-propyl]-carbamic acid hexahydro-furo[2,3-b]furan-3-yl ester] | < 0.1 nM | < 0.3 nM | < 0.1 nM | < 1 nM | 12 nM | 26 nM | – | 39 nM |
| CC(C)CN(CC(O)C(Cc1ccccc1)NC(=O)OC1COC2OCCC12)S(=O)(=O)c1ccc2c(c1)C(=CNCc1ccc3ccccc3n1)C(=O)N2 (stereo not drawn) [Compound 130] | 0.1 nM | < 0.3 nM | < 0.1 nM | < 1 nM | 32 nM | – | 23 nM | 27 nM |
| CCOC(=O)CN(C=C1C(=O)Nc2ccc(S(=O)(=O)N(CC(C)C)CC(O)C(Cc3ccccc3)NC(=O)OC3COC4OCCC34)cc21)Cc1ccccc1 (stereo not drawn) [Compound 138] | < 0.1 nM | < 0.3 nM | 0.11 nM | 1.9 nM | 31 nM | – | 15 nM | 16 nM |

From patent US7807845B2, “Resistance-repellent retroviral protease inhibitors” (priority 2004, dated 2010)
